Laboratory results: EP0939649B1, “ADDITIVE, IN PARTICULAR IN THE FORM OF AN EMULSION CONTAINING A TRIVALENT METAL CATION AND VACCINE COMPOSITION CONTAINING SAME” (priority 1996, dated 1998)

What was measured:
[1] = test system: sérum albumine bovine (BSA); assay: Immunostimulant effect of adjuvants: IgG1/IgG2a antibody response in mice vaccinated subcutaneously with BSA antigen; format: in vivo, souris; settings: 21 days after vaccination, 100 µl s.c. per mouse, 10 µg BSA, salts at optimal concentration; for réponse lgG2a: represents cellular response; for réponse lgG1: represents humoral response
Method: Ces compositions thérapeutiques comprennent, à titre d'antigène de la sérum albumine bovine (BSA), Grade V, Sigma.
Ces compositions thérapeutiques (dose/souris) d'un volume de 100 µl mises en oeuvre comprenaient 10µg d'antigène et ont été injectées par voie sous-cutanée.
Les résultats ont été obtenus 21 jours après vaccination:
Les réponses IgG 1 sont représentatives de la réponse humorale,
Les réponses IgG 2a sont représentatives de la réponse cellulaire.

[2] = Local reactions (lesions and granulomas) at the injection site after subcutaneous injection in mice; format: in vivo, souris; settings: 8 days after s.c. injection, 1000 µl, 10 µg BSA
Method: On a injecté à différents lots comprenant chacun 5 souris, une composition thérapeutique d'un volume de 1000 µl, comprenant 10 µg d'antigène (BSA), par voie sous-cutanée. On a évalué les réactions locales (lésions et granulomes) 8 jours après injection.

In the case of salicylate d'Aluminium, the “réponse lgG2a” value [1] was 6000 and the “réponse lgG1” value [1] was 48000.
In the case of `[OH][Al]([OH])[OH]` [AlOH, hydroxyde d'Aluminium], the “réponse lgG2a” value [1] was <1000 and the “réponse lgG1” value [1] was 8000.
For `CC(=O)[O-].CC(=O)[O-].[Al+3].[OH-]` [C4H7AlO5 (forme insoluble), forme insoluble d'acétate d'Aluminium (C4H7AlO5)], the “réponse lgG2a” value [1] was <1000 and the “réponse lgG1” value [1] was <1000.
In the case of phosphate d'Aluminium [AlPO4], the “réponse lgG2a” value [1] was <1000 and the “réponse lgG1” value [1] was <1000.
With `CC(=O)[O-].[Al+3].[OH-].[OH-]` [C2H5AlO4 (forme soluble), acétate d'Aluminium soluble (C2H5AlO4)] the “réponse lgG2a” value [1] was 8000, the “réponse lgG1” value [1] was 64000 and the “réactions locales (lésions et granulomes)” value (shortened to “réactions locales”) ([2]; souris 1) was 0. For the same molecule, the “réactions locales” value ([2]; souris 2) was 0, the “réactions locales” value ([2]; souris 3) was 0 and the “réactions locales” value ([2]; souris 5) was 0.
